Experimental findings from US9273057B2 (Bristol-Myers Squibb Company, priority 2012, dated 2016) are described below.

The assay deals with CK2A1 (CK2α/β) (Homo sapiens, UniProt P68400). The assay is described as follows: CK2 kinase assay, CK2A1 (CK2α/β). Format: biochemical. Particulars: Table A; read-out: CK2A1 (CK2α/β) (IC50).
CK2A1 (CK2α/β), sequence (P68400 whole entry, species assumed): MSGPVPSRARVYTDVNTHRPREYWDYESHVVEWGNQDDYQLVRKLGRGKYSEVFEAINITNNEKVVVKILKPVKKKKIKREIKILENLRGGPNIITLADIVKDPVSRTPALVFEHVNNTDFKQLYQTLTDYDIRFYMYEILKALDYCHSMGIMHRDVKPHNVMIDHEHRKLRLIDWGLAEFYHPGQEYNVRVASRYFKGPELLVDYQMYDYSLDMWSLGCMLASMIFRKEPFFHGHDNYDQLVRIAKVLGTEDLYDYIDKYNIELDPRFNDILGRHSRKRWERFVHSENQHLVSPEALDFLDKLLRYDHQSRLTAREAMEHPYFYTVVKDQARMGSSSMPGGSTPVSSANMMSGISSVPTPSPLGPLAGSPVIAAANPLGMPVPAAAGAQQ
CK2A1 (CK2α/β), sequence (P67870 whole entry partner, species assumed): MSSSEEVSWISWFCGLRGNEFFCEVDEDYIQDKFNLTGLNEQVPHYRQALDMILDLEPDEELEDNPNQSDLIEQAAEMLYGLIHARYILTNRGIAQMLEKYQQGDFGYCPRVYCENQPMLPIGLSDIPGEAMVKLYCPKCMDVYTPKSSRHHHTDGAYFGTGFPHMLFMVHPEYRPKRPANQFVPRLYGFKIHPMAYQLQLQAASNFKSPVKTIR
In the case of `COC(=O)N[C@@H]1CN(c2cc(C#N)cc(Nc3nc(NC4CC4)c4ncc(C#N)n4n3)c2Cl)C[C@H]1O` (racemic) [Example 9, (+/−) methyl ((3R,4R)-1-(2-chloro-5-cyano-3-((7-cyano-4-(cyclopropylamino)imidazo [2,1-f][1,2,4]triazin-2-yl)amino)phenyl)-4-hydroxy-3-pyrrolidinyl)carbamate], the IC50 worked out at 0.66 nM.

Turning to `CC(=O)N[C@@H]1CN(c2cc(C#N)cc(Nc3nc(NC4CC4)c4ncc(C#N)n4n3)c2Cl)C[C@H]1O` (racemic) [Example 10, (+/−) N-((3R,4R)-1-(2-chloro-5-cyano-3-((7-cyano-4-(cyclopropylamino)imidazo [2,1-f][1,2,4]triazin-2-yl)amino)phenyl)-4-hydroxy-3-pyrrolidinyl)acetamide], the IC50 was found to be 0.51 nM.

Consider `COC(=O)N[C@@H]1CN(c2cc(C#N)cc(Nc3nc(NC4CC4)c4ncc(C#N)n4n3)c2Cl)C[C@@H]1C` (racemic) [Example 11, (+/−) methyl ((3S,4S)-1-(2-chloro-5-cyano-3-((7-cyano-4-(cyclopropylamino)imidazo [2,1-f][1,2,4]triazin-2-yl)amino)phenyl)-4-methyl-3-pyrrolidinyl)carbamate], for which the IC50 amounted to 0.68 nM.

Turning to `COC(=O)N[C@H]1C[C@H](O)CN(c2cc(C#N)cc(Nc3nc(NC4CC4)c4ncc(C#N)n4n3)c2Cl)C1` (racemic) [Example 17, (+/−) methyl ((3S,5S)-1-(2-chloro-5-cyano-3-((7-cyano-4-(cyclopropylamino)imidazo [2,1-f][1,2,4]triazin-2-yl)amino)phenyl)-5-hydroxy-3-piperidinyl)carbamate], the IC50 was 0.59 nM.

In the case of `C[C@@H]1CN(c2cc(C#N)cc(Nc3nc(NC4CC4)c4ncc(C#N)n4n3)c2Cl)C[C@@H]1O` (racemic) [Example 19, (+/−) 2-((2-chloro-5-cyano-3-((3R,4R)-3-hydroxy-4-methyl-1-pyrrolidinyl)phenyl)amino)-4-(cyclopropylamino)imidazo [2,1-f][1,2,4]triazine-7-carbonitrile], the IC50 stood at 1.27 nM.

For `C[C@@H]1CN(c2cc(C#N)cc(Nc3nc(NC4CC4)c4ncc(C#N)n4n3)c2Cl)C[C@H]1O` (racemic) [Example 20, (+/−) 2-((2-chloro-5-cyano-3-((3S,4R)-3-hydroxy-4-methyl-1-pyrrolidinyl)phenyl)amino)-4-(cyclopropylamino)imidazo [2,1-f][1,2,4]triazine-7-carbonitrile], the IC50 was 4.9 nM.

For `COC(=O)N[C@@H]1CN(c2cc(C#N)cc(Nc3nc(NC4CC4)c4ncc(C#N)n4n3)c2Cl)C[C@H]1C` (racemic) [Example 21, (+/−) methyl ((3S,4R)-1-(2-chloro-5-cyano-3-((7-cyano-4-(cyclopropylamino)imidazo [2,1-f][1,2,4]triazin-2-yl)amino)phenyl)-4-methyl-3-pyrrolidinyl)carbamate], the IC50 is 1.16 nM.

`CN1CCCC12CCN(c1cc(C#N)cc(Nc3nc(NC4CC4)c4ncc(C#N)n4n3)c1Cl)C2` (racemic) [Example 25, (+/−) 2-((2-chloro-5-cyano-3-(1-methyl-1,7-diazaspiro[4.4]non-7-yl)phenyl)amino)-4-(cyclopropylamino)imidazo [2,1-f][1,2,4]triazine-7-carbonitrile]: the IC50 was 0.49 nM.

On to `CN1CCC2(CC1)CCN(c1cc(C#N)cc(Nc3nc(NC4CC4)c4ncc(C#N)n4n3)c1Cl)C2` (racemic) [Example 26, (+/−) 2-((2-chloro-5-cyano-3-(8-methyl-2,8-diazaspiro[4.5]dec-2-yl)phenyl)amino)-4-(cyclopropylamino)imidazo [2,1-f][1,2,4]triazine-7-carbonitrile], for which the IC50 is 1.03 nM.

As to `CN1CCC2(CCN(c3cc(C#N)cc(Nc4nc(NC5CC5)c5ncc(C#N)n5n4)c3Cl)CC2)C1` (racemic) [Example 27, (+/−) 2-((2-chloro-5-cyano-3-(2-methyl-2,8-diazaspiro[4.5]dec-8-yl)phenyl)amino)-4-(cyclopropylamino)imidazo [2,1-f][1,2,4]triazine-7-carbonitrile], the IC50 came out at 0.87 nM.

As to `CNC1CCN(c2cc(C#N)cc(Nc3nc(NC4CC4)c4ncc(C#N)n4n3)c2Cl)C1` (racemic) [Example 28, (+/−) 2-((2-chloro-5-cyano-3-(3-(methylamino)-1-pyrrolidinyl)phenyl)amino)-4-(cyclopropylamino)imidazo [2,1-f][1,2,4]triazine-7-carbonitrile], the IC50 was determined as 0.57 nM.

As to `N#Cc1cc(Nc2nc(NC3CC3)c3ncc(C#N)n3n2)c(Cl)c(N2CCC3(CCCN3)C2)c1` (racemic) [Example 31, (+/−) 2-((2-chloro-5-cyano-3-(1,7-diazaspiro[4.4]non-7-yl)phenyl)amino)-4-(cyclopropylamino)imidazo [2,1-f][1,2,4]triazine-7-carbonitrile], the IC50 turned out to be 0.61 nM.

With `CCNC(=O)N[C@H]1CN(c2cc(C#N)cc(Nc3nc(NC4CC4)c4ncc(C#N)n4n3)c2Cl)C[C@H]1OC` (racemic) [Example 32, (+/−) 1-((3S,4R)-1-(2-chloro-5-cyano-3-((7-cyano-4-(cyclopropylamino)imidazo [2,1-f][1,2,4]triazin-2-yl)amino)phenyl)-4-methoxy-3-pyrrolidinyl)-3-ethylurea], the IC50 stood at 0.8 nM.

For the molecule `CC(C)(O)C1CN(c2cc(C#N)cc(Nc3nc(NC4CC4)c4ncc(C#N)n4n3)c2Cl)CCO1` (racemic) [Example 33, (+/−) 2-((2-chloro-5-cyano-3-(2-(1-hydroxy-1-methylethyl)-4-morpholinyl)phenyl)amino)-4-(cyclopropylamino)imidazo [2,1-f][1,2,4]triazine-7-carbonitrile], the IC50 was found to be 0.54 nM.

As for `CN1CCN(c2cc(C#N)cc(Nc3nc(NC4CC4)c4ncc(C#N)n4n3)c2Cl)CC1C(C)(C)O` (racemic) [Example 34, (+/−) 2-((2-chloro-5-cyano-3-(3-(1-hydroxy-1-methylethyl)-4-methyl-1-piperazinyl)phenyl)amino)-4-(cyclopropylamino)imidazo [2,1-f][1,2,4]triazine-7-carbonitrile], the IC50 stood at 0.92 nM.

`CC1CN(c2cc(C#N)cc(Nc3nc(NC4CC4)c4ncc(C#N)n4n3)c2Cl)CCN1C` (racemic) [Example 35, (+/−) 2-((2-chloro-5-cyano-3-(3,4-dimethyl-1-piperazinyl)phenyl)amino)-4-(cyclopropylamino)imidazo [2,1-f][1,2,4]triazine-7-carbonitrile]: the IC50 is 0.38 nM.

Regarding `CC(CO)N1CCN(c2cc(C#N)cc(Nc3nc(NC4CC4)c4ncc(C#N)n4n3)c2Cl)CC1` (racemic) [Example 54, (+/−) 2-((2-chloro-5-cyano-3-(4-(2-hydroxy-1-methylethyl)-1-piperazinyl)phenyl)amino)-4-(cyclopropylamino) imidazo[2,1-f][1,2,4] triazine-7-carbonitrile], the IC50 turned out to be 1.61 nM.

On to `N#Cc1cc(Nc2nc(NC3CC3)c3ncc(C#N)n3n2)c(Cl)c(N2CCN([C@@H]3COC[C@H]3O)CC2)c1` (racemic) [Example 59, (+/−) 2-((2-chloro-5-cyano-3-(4-((3R,4S)-4-hydroxytetrahydro-3-furanyl)-1-piperazinyl)phenyl)amino)-4-(cyclopropylamino) imidazo[2,1-f][1,2,4] triazine-7-carbonitrile], for which the IC50 was determined as 0.59 nM.

As for `COCC(C)N1CCN(c2cc(C#N)cc(Nc3nc(NC4CC4)c4ncc(C#N)n4n3)c2Cl)CC1` (racemic) [Example 64, (+/−) 2-((2-chloro-5-cyano-3-(4-(2-methoxy-1-methylethyl)-1-piperazinyl)phenyl)amino)-4-(cyclopropylamino) imidazo[2,1-f][1,2,4] triazine-7-carbonilrile], the IC50 came out at 0.71 nM.

For the molecule `N#Cc1cc(Nc2nc(NC3CC3)c3ncc(C#N)n3n2)c(Cl)c(N2CCN(CC(O)CF)CC2)c1` (racemic) [Example 66, (+/−) 2-((2-chloro-5-cyano-3-(4-(3-fluoro-2-hydroxypropyl)-1-piperazinyl)phenyl)amino)-4-(cyclopropylamino) imidazo[2,1-f][1,2,4] triazine-7-carbonitrile], the IC50 came out at 0.58 nM.

In the case of `CC(O)C(=O)N1CCN(c2cc(C#N)cc(Nc3nc(NC4CC4)c4ncc(C#N)n4n3)c2Cl)CC1` (racemic) [Example 80, (+/−) 2-((2-chloro-5-cyano-3-(4-lactoyl-1-piperazinyl)phenyl)amino)-4-(cyclopropylamino) imidazo[2,1-f][1,2,4] triazine-7-carbonitrile], the IC50 worked out at 0.47 nM.

`N#Cc1cc(Nc2nc(NC3CC3)c3ncc(C#N)n3n2)c(Cl)c(N2CCN(C(=O)C3CNC(=O)N3)CC2)c1` (racemic) [Example 81, (+/−)2-((2-chloro-5-cyano-3-(4-((2-oxo-4-imidazolidinyl)carbonyl)-1-piperazinyl)phenyl)amino)-4-(cyclopropylamino) imidazo[2,1-f][1,2,4] triazine-7-carbonitrile]: the IC50 amounted to 1.8 nM.

With `N#Cc1cc(Nc2nc(NC3CC3)c3ncc(C#N)n3n2)c(Cl)c(N2CCN(C(=O)C3CCCO3)CC2)c1` (racemic) [Example 84, (+/−) 2-((2-chloro-5-cyano-3-(4-(tetrahydro-2-furanylcarbonyl)-1-piperazinyl)phenyl)amino)-4-(cyclopropylamino) imidazo[2,1-f][1,2,4] triazine-7-carbonitrile], the IC50 stood at 0.5 nM.

As for `CN1CCCC(C(=O)N2CCN(c3cc(C#N)cc(Nc4nc(NC5CC5)c5ncc(C#N)n5n4)c3Cl)CC2)C1` (racemic) [Example 92, (+/−) 2-((2-chloro-5-cyano-3-(4-((1-methyl-3-piperidinyl)carbonyl)-1-piperazinyl)phenyl)amino)-4-(cyclopropylamino) imidazo[2,1-f][1,2,4] triazine-7-carbonitrile], the IC50 worked out at 1.12 nM.

On to `N#Cc1cc(Nc2nc(NC3CC3)c3ncc(C#N)n3n2)c(Cl)c(N2CCN(C(=O)C3CNCCO3)CC2)c1` (racemic) [Example 94, (+/−) 2-(2-chloro-5-cyano-3-(4-(morpholine-2-carbonyl)piperazin-1-yl)phenylamino)-4-(cyclopropylamino) imidazo[1,2-f][1,2,4] triazine-7-carbonitrile], for which the IC50 is 0.96 nM.
